Activity calls are given as the source filed them. The rule behind the calls is not given here.

This data set can be described thus: Cytotoxicity activity against human HepG2 cells assessed by CellTiter-Glo luminescent cell viability assay. Set-up: assay stage confirmatory assay, source tissue liver. In kind it is toxicity, cell-based. The following applies: HepG2 cells, read-out: IC50 relative. (ATP-based viability assays read luminescence as a measure of living cells.)
Regarding `CC(C)Oc1cc(O)c2c(=O)c(-c3ccc(O)cc3)coc2c1`, the CC50 is 15.6 µM (active).

As for `O=c1c2ccccc2cnn1-c1nc2ccccc2[nH]1`, the CC50 was 5.2 µM (active).

Regarding `CCC[C@H](NCc1csc(N(C)C)n1)c1ncccc1Cl`, the CC50 was 11.1 µM (active).

On to `Cc1nc(-c2ccccn2)[nH]c(=O)c1CC(=O)N(C)[C@H]1CCc2ccccc21`, for which the CC50 was 6.3 µM (active).

As for `CCOc1ncccc1C(=O)Nc1cc(F)ccc1F`, the CC50 is 1.3 µM (active).

As for `CC[C@H]1c2ccsc2CCN1C(=O)c1cc(OC)cc(OC)c1`, the CC50 is 13 µM (active).

Regarding `O=C(Nc1ccc(O[C@H]2CCOC2)cc1)c1cn2ccnc2s1`, the CC50 was 1.8 µM (active).

As for `CC(C)c1cc(C(=O)NCc2ccc(N3CCO[C@@H](C)C3)nc2)n[nH]1`, the CC50 is 4.8 µM (active).

With `COc1ccccc1C(=O)Cc1nc2ccccc2o1`, the CC50 was 8 µM (inactive).

In the case of `Oc1ccc(CCNc2ncnc3cccc(F)c23)cc1`, the CC50 is 3.7 µM (active).

With `Cc1noc(C)c1C(=O)Nc1nc(-c2ccc(S(=O)(=O)N(C)C)cc2)cs1`, the CC50 was 11.3 µM (active).

With `CCOc1cc(C)c(CN2C[C@@H](CN(C)C)C[C@H](CO)C2)cc1C(C)C`, the CC50 is 4.1 µM (active).

As for `Cc1nc(-c2ccccn2)[nH]c(=O)c1CC(=O)N1CCC[C@H]1C1CCCCC1`, the CC50 is 6.7 µM (active).

Take `O=c1[nH]c(Cc2ccc(-n3cccn3)cc2)nc2ccccc12`: the CC50 was 2.1 µM (active).

With `CCOc1ccc(NC(=O)c2nc(S(C)(=O)=O)ncc2Br)cc1`, the CC50 is 1.6 µM (active).

With `CC(C)N(CCNS(=O)(=O)c1ccc(-n2ncc(Cl)c(Cl)c2=O)cc1)C(C)C`, the CC50 is 1.3 µM (active).

Turning to `COc1ccc(C(N)=O)cc1NC(=O)c1cc(Br)c[nH]1`, the CC50 was 1.2 µM (active).

With `CCc1ccc2nc(N3CCC(C(=O)NCCN(CC)CC)CC3)sc2c1`, the CC50 is 3.1 µM (active).

For `CC(C)[C@H](NC1CCN(C(=O)c2ccoc2)CC1)c1ccccc1`, the CC50 was 10.7 µM (active).

On to `Cc1c(C(=O)Nc2ccnc3ccnn23)cnn1-c1ccccc1F`, for which the CC50 was 3.3 µM (active).

As to `Cc1nc(NC(=O)c2cc(Br)cn2C)sc1C`, the CC50 was 1 µM (active).

As to `N#CCCn1c(=O)c(C(=O)NCCCc2ccccc2)c(O)c2ccccc21`, the CC50 was 5.9 µM (active).

For the compound `CCOc1ccc(CN2CCN(C(=O)c3ccc(-c4ncon4)cc3)CC2)cc1`, the CC50 is 5 µM (active).

As for `C[C@@H]1Oc2ccc(NC(=O)c3ccc(S(=O)(=O)NCc4ccco4)cc3)cc2NC1=O`, the CC50 was 6.8 µM (inactive).

With `Cc1ccc(NC(=O)c2nc(S(C)(=O)=O)ncc2Br)cc1`, the CC50 is 2.7 µM (active).

In the case of `O=C(c1cc(-c2ccco2)on1)N1CCc2ccccc21`, the CC50 was 8.6 µM (active).

For the compound `CCc1n[nH]cc1C(=O)N[C@H]1CC[C@H](Nc2nccc(-c3ccccn3)n2)C1`, the CC50 is 3.9 µM (active).

Take `COc1cc(OC)c2cc(CCCN)[nH]c2c1`: the CC50 was 8.2 µM (active).

In the case of `Cc1ccc(F)c(C(=O)N2CCC(Oc3ccncc3C)CC2)c1`, the CC50 is 11.2 µM (active).

Regarding `CCS(=O)(=O)c1ncc(Br)c(C(=O)Nc2ccc(C)cc2)n1`, the CC50 is 3.1 µM (active).

In the case of `CN1CCNc2cc(Br)ccc21`, the CC50 was 15.3 µM (inactive).

In the case of `CC(=O)NCc1ccc(C(=O)Cn2ncc(Cl)c(Cl)c2=O)cc1`, the CC50 is 8 µM (active).

`C[C@H]1Cc2cc(S(N)(=O)=O)ccc2N1Cc1cc(=O)n2cc(Cl)ccc2n1`: the CC50 is 10.9 µM (active).

On to `Fc1cccc(OC2CCN(C[C@H]3[C@@H]4CNC[C@@H]43)CC2)c1`, for which the CC50 is 7.9 µM (active).

Regarding `CCOc1ccc(OCC)c(NC(=O)c2ccc(N3CCN(C(C)C)CC3)cc2)c1`, the CC50 is 9.8 µM (active).

Regarding `CCCOc1ccccc1-n1c(C)cn2c3c(=O)n(C)c(=O)n(C)c3nc12`, the CC50 is 6.7 µM (active).

For the compound `Cc1oc(-c2ccccc2)nc1C(=O)Nc1ncccc1O`, the CC50 is 9.6 µM (inactive).

Regarding `CN(C)S(=O)(=O)c1cccc(NC(=O)c2ccc(S(=O)(=O)N(C)c3ccccc3)cc2)c1`, the CC50 was 2.6 µM (active).

Consider `NC(=O)c1c(NC(=O)Cn2ncc(Cl)c(Cl)c2=O)sc2c1CCC2`, for which the CC50 was 1.9 µM (active).

`CCn1c(-c2cccc(S(=O)(=O)N3CCOCC3)c2)cs/c1=N/c1ccccc1`: the CC50 was 5 µM (active).

Take `CN1C(=O)Cc2cc(S(=O)(=O)Nc3cccc4cccnc34)ccc21`: the CC50 was 6.9 µM (active).

For `Oc1ccccc1N1CCN(C[C@H](O)COc2ccc(Oc3ccccc3)cc2)CC1`, the CC50 is 19.2 µM (inactive).

As for `CCN(C(=O)c1ccco1)c1nc2ccccc2s1`, the CC50 is 0.9 µM (active).

`CC(C)c1nn(-c2ccccc2)cc1CNCC(C)(C)N1CCN(C)CC1`: the CC50 is 4.9 µM (active).

For `O=c1ccc2cc(S(=O)(=O)Nc3cccc4cccnc34)ccc2o1`, the CC50 is 3.5 µM (active).

For `c1csc(Cn2cccc2CN2CCC[C@H](N3CCCC3)CC2)c1`, the CC50 was 5.2 µM (active).

On to `O=C(COc1ccc(F)cc1)N1CCN(c2ncnc3c(F)cccc23)CC1`, for which the CC50 was 9.7 µM (active).

As for `OC1(CNCCSCc2cccc(Cl)c2)CCNC1` (configuration not stated), the CC50 is 8.4 µM (active).

Consider `c1cc2c(cc1-c1ccc3c(n1)CCCN3)CCN2`, for which the CC50 is 13.5 µM (inactive).

Turning to `Nc1nccc(-n2nnc3ccccc32)n1`, the CC50 was 8.7 µM (active).

`OC(c1ccccc1)C(CN1CCCC1)c1ccccc1` (configuration not stated): the CC50 is 8.8 µM (active).

For `CC(C)c1cc(N2CCN(c3ccc(C#N)cc3)CC2)ncn1`, the CC50 is 5.7 µM (active).

Take `COc1ccc(OCCN2CCN(C(=O)c3ccc(OCc4cn5ccccc5n4)cc3)CC2)cc1`: the CC50 is 4.3 µM (active).

In the case of `CN(C)C1CCN(C(C)(C)CNCc2cccc(Cl)c2N)CC1`, the CC50 was 12 µM (active).

Regarding `Cc1ccn(-c2ccc(NC(=O)c3ccccn3)cc2)n1`, the CC50 was 4.5 µM (active).

As to `COc1ccc(OC)c(N2C[C@@H](C(=O)Nc3ccc(Cl)cn3)CC2=O)c1`, the CC50 was 4.7 µM (active).

On to `COc1ccc(NC(=O)c2nc(S(C)(=O)=O)ncc2Br)cc1`, for which the CC50 is 1.9 µM (active).

In the case of `CCCOc1ccc(NC(=O)N2CCN(c3ccncc3)CC2)cc1Cl`, the CC50 was 7.4 µM (active).

Take `CC1CCc2c(sc3ncnc(NN)c23)C1` (configuration not stated): the CC50 was 20.5 µM (inactive).

With `Cc1cccc2nc(C(=O)Nc3cccnc3-n3cccn3)cn12`, the CC50 is 7 µM (active).

For the compound `CCn1c(=O)c(C)nc2cc(C(=O)N3CCN(Cc4ccc(OC)cc4)CC3)ccc21`, the CC50 was 7.3 µM (active).

As for `Clc1ccc2oc(C3CCNCC3)cc2c1`, the CC50 was 10.1 µM (active).

In the case of `Clc1cccc2[nH]nc(Br)c12`, the CC50 was 8.8 µM (active).

Take `O[C@H]1CCN(Cc2csc(-c3ccoc3)n2)C12CCCC2`: the CC50 was 5 µM (active).

In the case of `N#Cc1ccc(NC(=O)Nc2cnn(-c3ccccc3)c2)cc1`, the CC50 is 8.9 µM (active).

For `CC(C)Cn1ccnc1NC(=O)COc1ccc2ccccc2c1`, the CC50 was 1.1 µM (active).

Consider `COc1cccc(NC(=O)CN(C)C(=O)Cn2ncc(Cl)c(Cl)c2=O)c1`, for which the CC50 was 8.5 µM (active).

Regarding `COCCNc1ncnc2scc(-c3ccccc3)c12`, the CC50 was 8.6 µM (active).

Consider `COc1ccc(CN2CCN(c3ncnc4sccc34)CC2)cc1OC`, for which the CC50 is 1.4 µM (active).

On to `CC(=O)NCCc1ccc(C(=O)Cn2ncc(Cl)c(Cl)c2=O)s1`, for which the CC50 is 7.8 µM (active).

In the case of `CC(=O)Nc1cccc(NC(=O)c2cc3ccccc3cc2O)c1`, the CC50 is 1.6 µM (inactive).

In the case of `Cc1cccc(C(=O)Nc2nc3ccccc3[nH]2)n1`, the CC50 is 4.4 µM (active).

`NNc1ncnc2ccc(Br)cc12`: the CC50 is 2.4 µM (active).

`O=C(Cn1ncc(Cl)c(Cl)c1=O)N1CCC[C@H]1c1cccs1`: the CC50 was 4.2 µM (active).

For the compound `O=C(Nc1ccc(O)cc1)c1cnn(Cc2ccccc2Cl)c1`, the CC50 is 8.4 µM (active).

On to `O=C(Cn1nnc2ccccc21)Nc1nc(-c2ccccn2)cs1`, for which the CC50 is 1.7 µM (active).

Take `CC(C)CCOc1ccc(CN(CC(C)(C)N(C)C)S(C)(=O)=O)cc1`: the CC50 is 12.2 µM (active).

For `Cn1c(N2CCN(Cc3ccccc3)CC2)nc2c1c(=O)n(Cc1ccccc1)c(=O)n2C`, the CC50 was 13.4 µM (inactive).

In the case of `Cc1cc(C)cc(N2CCC(NCC3CCCNC3)CC2)c1` (configuration not stated), the CC50 is 8.2 µM (active).

Take `CN(C)Cc1ccc(C(=O)Nc2nc3c(s2)CCCC3)cc1`: the CC50 was 11.3 µM (active).

For the compound `CNc1c(Cl)ncnc1NCc1cccc(Cn2cccn2)c1`, the CC50 was 1.4 µM (active).

On to `Cc1cccc(C(=O)Nc2ccc(C(=O)Nc3cccnc3)cc2)n1`, for which the CC50 was 5.8 µM (active).

Turning to `CCN(C(=O)c1c[nH]n2c1nc(=O)c1ccccc12)[C@@H](C)c1ccc(F)cc1`, the CC50 was 5 µM (active).

As for `O=C(Nc1ncc(-c2ccccc2)s1)c1ccccn1`, the CC50 was 2.3 µM (active).

Regarding `Cc1ccc(NC(=O)c2ccc(Cl)s2)cc1S(=O)(=O)N1CCOCC1`, the CC50 is 4.7 µM (active).

As for `Cc1cc2c(N3CC[C@@]4(C3)NC(=O)N(C)C4=O)ccnc2cc1Cl`, the CC50 is 8.6 µM (active).

Turning to `Clc1ccc(-c2cnc(CN3CC4(CCNCC4)[C@H]4COC[C@H]43)o2)cc1`, the CC50 is 12.8 µM (active).

`Cc1cc(N2CCNCC2)nc2c(C)cccc12`: the CC50 was 11.1 µM (active).

`COc1ccc(CN2CCN(CCSC)CC2)c2c(OC)cccc12`: the CC50 is 12.6 µM (inactive).

`CCOc1cc(C(=O)N[C@H]2CCN(C3CCN(C)CC3)C2)ccc1C`: the CC50 was 15.9 µM (inactive).

For `COc1ccc(C)cc1CN(C)C(=O)CCn1c(=O)[nH]c(=O)c2ccccc21`, the CC50 is 0.2 µM (active).

For `CS(=O)(=O)c1ncc(Br)c(C(=O)Nc2ccc(F)cc2)n1`, the CC50 is 2.8 µM (active).

For the origin of these results see ChEMBL document CHEMBL5303711, “ECBD screening data for assay EOS300108” (2023).
